Patent US7279161B2, “Factor IX/factor IXa activating antibodies and antibody derivatives” (Baxter Aktiengesellschaft, priority 1999, dated 2007)
Entries after “also recorded” stand apart in the source; their conditions may differ.

How the values were obtained:
human FIXa = biological target: T1, human FIXa (Homo sapiens, UniProt P00740); assay: Chromogenic FVIII-like (FXa generation) assay with human FIXa added; format: biochemical
T1 construct: with (+) and without (−) addition of 50 ng human FIXaβ; purchased ERL (Enzyme Research Laboratories)
T1 sequence (P00740 47-191 limits assumed): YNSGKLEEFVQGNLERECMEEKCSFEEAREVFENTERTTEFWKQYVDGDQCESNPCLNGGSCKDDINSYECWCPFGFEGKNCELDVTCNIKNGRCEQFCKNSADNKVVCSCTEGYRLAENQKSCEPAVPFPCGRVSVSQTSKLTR
T1 sequence (P00740 227-461 limits assumed): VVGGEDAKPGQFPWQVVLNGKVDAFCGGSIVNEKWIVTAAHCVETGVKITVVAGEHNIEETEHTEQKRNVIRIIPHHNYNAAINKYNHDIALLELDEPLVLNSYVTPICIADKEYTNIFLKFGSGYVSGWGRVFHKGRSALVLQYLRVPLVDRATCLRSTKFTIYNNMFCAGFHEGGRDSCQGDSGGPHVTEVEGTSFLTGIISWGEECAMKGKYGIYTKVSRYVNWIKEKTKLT
Procedure: The chromogenic activity of these antibody preparations was measured in the following FXa generation kinetic assay: 10 μg of monoclonal antibody (in 25 μl) were transferred to microtiter plate wells and warmed to 37° C. Chromogenic substrate (S-2222), synthetic thrombin inhibitor (I-2581), factor IXa and FX were reconstituted in sterile water and FIXa/FX (both bovine) were mixed with phospholipids according to the supplier's protocol. Per reaction, 50 μl of the phospholipid/FIXa/FX solution were combined with 25 μl CaCl2 (25 mM) and 50 μl of the substrate/inhibitor cocktail. To start the reaction, 125 μl of the premix were added to the monoclonal antibody solution in the microtiter plates and incubated at 37° C. Absorbance at 405 nm and 490 nm of the samples was read at various times (5 min to 2 h) against a reagent blank ([…] TBS instead of monoclonal antibodies) in a Labsystems iEMS Reader MF™ microtiter plate reader using GENESIS™ software. In parallel, the same reactions were performed except that 50 ng human FIXa were added per reaction.
To analyze the FVIII-like (FIXa activating) activity of the peptides, an assay system based on a commercial available FVIII assay was developed (see examples 2 and 4). The basic principle is, that without a cofactor, FIXa will have very limited activity towards its natural substrate FX. […] The amount of FXa generated is monitored by cleavage of a chromogenic substrate. The principle of the revised chromogenic assay is described for two representative peptides: A1/3 and A1/5 (Table 2). Briefly, 25 μl aliquots of peptide stock solution (in imidazole buffer (IZ) 50 mM imidazole, 100 mM NaCl, pH 7.2) were transferred to microtiter plate wells and warmed to 37° C. Chromogenic FXa substrate (S-2222), synthetic thrombin inhibitor (I-2581), bovine FIXa and bovine FX were reconstituted in sterile water and FIXa/FX mixed with phospholipids according to the supplier's protocol. […] Per reaction, 50 μl of the phospholipid/FIXa/FX solution were combined with 25 μl CaCl2 (25 mM) and 50 μl of the substrate/inhibitor cocktail. To start the reaction, 125 μl of the premix were added to the peptide solution in the microtiter plate and incubated at 37° C. Absorbance at 405 nm and 490 nm of the samples was read at various times (5 min to 2 h) against a reagent blank in a Labsystems iEMS Reader MF™ microtiter plate reader using GENESIS™ software.

FVIII deficient plasma = assay: aPTT based one stage clotting assay in FVIII deficient plasma; format: biochemical, human
Procedure: During normal hemostasis, FIX becomes initially activated either by the tissue factor (TF)/factor VIIa pathway or later on by activated factor XI (FXIa). Subsequent to its activation, FIXa associates on the platelet surface in a membrane bound complex with activated FVIII. […] Different amounts of antibody 193/AD3 or mouse IgG (as a control) were used in a standard aPTT based one stage clotting assay. Briefly, 100 μl of antibody-containing samples were incubated with 100 μl of FVIII deficient plasma (DP) and with 100 μl of DAPTTIN (PTT Reagent for determining activated Thromboplastin Time; IMMUNO AG) reagent, in a KC10A clotting analyzer. Where indicated, a total amount of 50 ng activated FIX was included in the reaction mixture. After a 4 minute incubation, the reaction was started by the addition of 100 μl CaCl2 (25 mM).
The peptides were also analyzed for their potential to reduce the clotting time in a FVIII deficient plasma. The aPTT based one stage clotting assay was essentially done as described (see example 6). Clotting times (time from starting the reaction to the “clot”-formation were compared either against FVIII, a buffer control (IZ) or a control peptide (scrambled version). The results of two typical clotting experiments done with two different aPTT reagents (DAPTTIN and Pathromtin SL) are shown in table 3A and table 3B.

Molecule: VRYRNRYRWGYRGRFGDE [A1/5]
- chromogenic FVIII-like activity (FXa generation) (human FIXa; 2.9 nM human FIXa): inactive; also recorded: does not give rise to any FXa generation
- chromogenic activity (human FIXa; 12 μM peptide, 2.3 nM human FIXa): no significant FXa generation

Molecule: EYGEGYGEVNEYDEFEWE [A1/4]
- chromogenic FVIII-like activity (FXa generation) (human FIXa; 2.9 nM human FIXa): did not give any significant chromogenic activity

Molecule: RdRdRdGEYGVYWNGDFYRdRdRd [A1/3-Rd-srmb]
- average clotting time (FVIII deficient plasma; Table 4, 1.25 μM, 2.2 nM FIXa): 103 s
- clotting time (FVIII deficient plasma; Table 4, 1.25 μM, 2.2 nM FIXa, duplicate 1): 101.1 s
- clotting time (FVIII deficient plasma; Table 4, 1.25 μM, 2.2 nM FIXa, duplicate 2): 105.3 s
- average clotting time (FVIII deficient plasma; Table 4, 1.25 μM, w/o FIXa): 107 s
- clotting time (FVIII deficient plasma; Table 4, 1.25 μM, w/o FIXa, duplicate 1): 107.2 s
- clotting time (FVIII deficient plasma; Table 4, 1.25 μM, w/o FIXa, duplicate 2): 107.1 s
- average clotting time (FVIII deficient plasma; Table 4, 2.5 μM, 2.2 nM FIXa): 105 s
- clotting time (FVIII deficient plasma; Table 4, 2.5 μM, 2.2 nM FIXa, duplicate 1): 105 s
- clotting time (FVIII deficient plasma; Table 4, 2.5 μM, 2.2 nM FIXa, duplicate 2): 104.2 s
- average clotting time (FVIII deficient plasma; Table 4, 2.5 μM, w/o FIXa): 112 s
- clotting time (FVIII deficient plasma; Table 4, 2.5 μM, w/o FIXa, duplicate 1): 111.9 s
- clotting time (FVIII deficient plasma; Table 4, 2.5 μM, w/o FIXa, duplicate 2): 111.9 s
- average clotting time (FVIII deficient plasma; Table 4, 5 μM, 2.2 nM FIXa): 108 s
- clotting time (FVIII deficient plasma; Table 4, 5 μM, 2.2 nM FIXa, duplicate 1): 108.5 s
- clotting time (FVIII deficient plasma; Table 4, 5 μM, 2.2 nM FIXa, duplicate 2): 108.2 s
- average clotting time (FVIII deficient plasma; Table 4, 5 μM, w/o FIXa): 113 s
- clotting time (FVIII deficient plasma; Table 4, 5 μM, w/o FIXa, duplicate 1): 113.1 s
- clotting time (FVIII deficient plasma; Table 4, 5 μM, w/o FIXa, duplicate 2): 112.4 s
- average clotting time (FVIII deficient plasma; Table 4, 7.5 μM, 2.2 nM FIXa): 107 s
- clotting time (FVIII deficient plasma; Table 4, 7.5 μM, 2.2 nM FIXa, duplicate 1): 107.6 s
- clotting time (FVIII deficient plasma; Table 4, 7.5 μM, 2.2 nM FIXa, duplicate 2): 106.6 s
- average clotting time (FVIII deficient plasma; Table 4, 7.5 μM, w/o FIXa): 114 s
- clotting time (FVIII deficient plasma; Table 4, 7.5 μM, w/o FIXa, duplicate 1): 114.6 s
- clotting time (FVIII deficient plasma; Table 4, 7.5 μM, w/o FIXa, duplicate 2): 113.6 s
- average clotting time (FVIII deficient plasma; Table 4, 10 μM, 2.2 nM FIXa): 108 s
- clotting time (FVIII deficient plasma; Table 4, 10 μM, 2.2 nM FIXa, duplicate 1): 107.2 s
- clotting time (FVIII deficient plasma; Table 4, 10 μM, 2.2 nM FIXa, duplicate 2): 107.8 s
- average clotting time (FVIII deficient plasma; Table 4, 10 μM, w/o FIXa): 116 s
- clotting time (FVIII deficient plasma; Table 4, 10 μM, w/o FIXa, duplicate 1): 115.8 s
- clotting time (FVIII deficient plasma; Table 4, 10 μM, w/o FIXa, duplicate 2): 115.3 s
- average clotting time (FVIII deficient plasma; Table 4, 12.5 μM, 2.2 nM FIXa): 108 s
- clotting time (FVIII deficient plasma; Table 4, 12.5 μM, 2.2 nM FIXa, duplicate 1): 108.1 s
- clotting time (FVIII deficient plasma; Table 4, 12.5 μM, 2.2 nM FIXa, duplicate 2): 107.8 s
- average clotting time (FVIII deficient plasma; Table 4, 12.5 μM, w/o FIXa): 118 s
- clotting time (FVIII deficient plasma; Table 4, 12.5 μM, w/o FIXa, duplicate 1): 117.2 s
- clotting time (FVIII deficient plasma; Table 4, 12.5 μM, w/o FIXa, duplicate 2): 118 s
- average clotting time (FVIII deficient plasma; Table 4, 15 μM, 2.2 nM FIXa): 113 s
- clotting time (FVIII deficient plasma; Table 4, 15 μM, 2.2 nM FIXa, duplicate 1): 112.7 s
- clotting time (FVIII deficient plasma; Table 4, 15 μM, 2.2 nM FIXa, duplicate 2): 112.4 s
- average clotting time (FVIII deficient plasma; Table 4, 15 μM, w/o FIXa): 122 s
- clotting time (FVIII deficient plasma; Table 4, 15 μM, w/o FIXa, duplicate 1): 121.9 s
- clotting time (FVIII deficient plasma; Table 4, 15 μM, w/o FIXa, duplicate 2): 121.3 s

Molecule: EEEEGGGYYVNWYFDEEE [A1/2]
- chromogenic FVIII-like activity (FXa generation) (human FIXa; 2.9 nM human FIXa): did not give any significant chromogenic activity

Molecule: REGGGFTVNWYFDR [B1/4]
- chromogenic activity (human FIXa; chromogenic FVIII assay, data not shown): some chromogenic activity

Molecule: FGVGYRGETRNFDW [B1/5]
- FIXa activating activity in chromogenic assay (human FIXa; data not shown): no activity

B1: 198/B1: anti-FIX/FIXa monoclonal IgG, ECACC No. 99090925; 198/AB2 is an identical subclone (protein)
scFv: EVQLQESGGGLVKPGGSLKLSCAASGFTFSSYTMSWVRQTPEKRLEWVATISSGGSSTYYPDSVKGRFTISRDNAKNTLYLQMSSLRSEDTAMYYCTREGGGFTVNWYFDVWGAGTLVTVSAGGGGSGGRASGGGGSENVLTQSPASLAVSLGQRATISCRASESVDSYGYNFMHWYQQIPGQPPKLLIYRASNLESGIPARFSGSGSRTDFTLTINPVEADDVATYYCQQSNEDPLTFGTGTRLEIKR
modifications: scFv derived from IgG; Description of Artificial Sequence:scFv from hybridoma cell line 198/AB2 (subclone of 198/B1)
notes: anti-FIX/FIXa monoclonal IgG, ECACC No. 99090925; 198/AB2 is an identical subclone
- procoagulant activity (FVIII deficient plasma; one-stage clotting assay in the presence of FIXa): show procoagulant activity

B2: MycHis-198AB2#102: 198/B1 (subclone AB2) scFv fragment with c-myc-tag and His6-tag (protein)
scFv: EVQLQESGGGLVKPGGSLKLSCAASGFTFSSYTMSWVRQTPEKRLEWVATISSGGSSTYYPDSVKGRFTISRDNAKNTLYLQMSSLRSEDTAMYYCTREGGGFTVNWYFDVWGAGTLVTVSAGGGGSGGRASGGGGSENVLTQSPASLAVSLGQRATISCRASESVDSYGYNFMHWYQQIPGQPPKLLIYRASNLESGIPARFSGSGSRTDFTLTINPVEADDVATYYCQQSNEDPLTFGTGTRLEIKR
modifications: left off: small tags and cut ends
notes: 198/B1 (subclone AB2) scFv fragment with c-myc-tag and His6-tag
- chromogenic FVIII-like activity (FXa generation) (human FIXa; 2.3 nM human FIXa): gave rise to a substantial FXa generation

B3: 8860-M/H#4c: unrelated scFv of #8860 with c-myc-tag and His6-tag, negative control (protein)
scFv: EVQLQQSGPELVKPGASVKISCKASGYAFSSSWMNWVKQRPGQGLEWIGRIYPGNGDTNYNGKFKGKATLTADKSSSTAYMQLSSLTSVDSAVYFCADGNVYYYAMDYWGQGTSVTVSSGGGGSGGRASGGGGSQIVLTQSPASLAVSLGQRATISCRASKSVSTSGYSYMHWYQQKPGQPPKLLIYLASNLESGVPARFSGSGSGTDFTLNIHPVEEEDAATYYCQHSRELPRTFGGGTKLEIKRAAAEQKLISEEDLNGAAHHHHHH
- chromogenic FVIII-like activity (FXa generation) (human FIXa; 2.3 nM human FIXa): did not

B4: 198/A1 Fab fragment: Fab fragment of antibody 198/A1 made with papain, purified on protein L (antibody, V domains shown)
VH: EVQLQESGGGLVKPGGSLKLSCAASGFIFSSYTMSWVRQTPEKRLEWVATISSGGSSTYYPDSVKGRFTISRDNAKNTLYLQMSSLKSEDTAMYHCTREGGGYYVNWYFDVWGAGTTLTVSS
VL: DIELTQSPASLAVSLGQRATISCRASESVDSYGKSFMHWYQQKPGQPPKLLIYRASNLESGIPARFSGSGSRTDFTLTINPVEADDVATYYCQQSNEDPLTFGAGTRLEIKR
- chromogenic FVIII-like activity (FXa generation) (human FIXa; 2.3 nM human FIXa): still gives rise to FIX dependent FXa generation
- chromogenic activity compared to intact antibody (human FIXa; 2.3 nM human FIXa): somewhat less activity
